Where two headings read alike, the source gives them in different places.
How the values were obtained:
[1] = tested on: IL-4 stimulated expression of CD23 in human Ramos B cells (JAK-1 and JAK-3); assay: Assay for Ramos B-Cell Line Stimulated with IL-4 (CD23 upregulation, FACS); assay type: cell-based; details: Ramos B-cell line stimulated with IL-4, CD23 expression by FACS, read-out: IC50, Example 41
In short: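 Log-phase Ramos cells, 1 h compound pre-incubation at 37 °C; IL-4 50 units/mL final, 20-24 h; CD23-PE stain, FACS; IC50.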

[2] = tested on: up-regulation of ICAM-1 (CD54) by IFNγ in A549 lung epithelial cells; assay: A549 Epithelial Line Stimulated with IFNγ (ICAM-1 surface expression, FACS); assay type: cell-based, human; details: ICAM-1 expression by FACS, read-out: IC50, Example 43
In short: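 A549 cells pre-incubated 1 h with compound (30 μM to 14 nM, 5% FBS, 0.3% DMSO), then stimulated with IFNγ (75 ng/mL) for 24 h. Surface ICAM-1 stained with APC anti-CD54 and read by flow cytometry; geometric mean of live-gated events plotted against concentration for EC50.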

[3] = A549 epithelial line stimulated with IFNγ

Row | IC50 [1] [µM] | IC50 [2, 3] [µM] | IC50 ([1]; sodium salt) [µM] | IC50 ([2]; A549 cells stimulated with IFNγ) [µM] | Compound
1 | 0.047 | 8.58 |  |  | Cc1cc(Nc2nc(Nc3ccc(F)c(S(N)(=O)=O)c3)ncc2F)cc(C)c1OCC#N [Compound I-35, N2-(3-Aminosulfonyl-4-fluoro)phenyl-N4-(4-cyanomethoxy-3,5-dimethyl)phenyl-5-fluoro-2,4-pyrimidinediamine]
2 | 0.0614 | 3.43 |  |  | COc1cc(Nc2ncc(F)c(Nc3ccc(OC(C)C#N)cc3)n2)ccc1S(N)(=O)=O (racemic) [Compound I-70, Racemic N2-(4-Aminosulfonyl-3-methoxy)phenyl-N4-[4-(1-cyano)ethoxy]phenyl-5-fluoro-2,4-pyrimidinediamine]
3 | 0.0183 | 36.7 |  |  | Cc1ccc(Nc2ncc(F)c(Nc3ccc(OCC#N)c(Cl)c3)n2)cc1S(N)(=O)=O [Compound I-43, N2-(3-Aminosulfonyl-4-methylphenyl)-N4-(3-chloro-4-cyanomethoxypheny)-5-fluoro-2,4-pyrimidinediamine]
4 | 0.127 | 24.2 |  |  | Cc1ccc(Nc2ncc(F)c(Nc3ccc(Cn4ccnc4)cc3)n2)cc1S(N)(=O)=O [III-82, N2-(3-Aminosulfonyl-4-methylphenyl)-5-fluoro-N4-[4-(1-imidazolylmethyl)phenyl]-2,4-pyrimidinediamine]
5 | 0.158 | 14.9 |  |  | Cc1ccc(Nc2ncc(F)c(Nc3ccc(NC(=O)CC#N)c(Cl)c3)n2)cc1S(N)(=O)=O [Compound I-83, N2-(3-Aminosulfonyl-4-methylphenyl)-N4-[3-chloro-4-(N-cyanoacetyl)aminophneyl]-5-fluoro-2,4-pyrimidinediamine]
6 | 0.113 | 5.17 |  |  | COc1cc(Nc2ncc(F)c(Nc3ccc(OC(C)C#N)c(C)c3)n2)ccc1S(N)(=O)=O (racemic) [Compound I-64, Racemic N2-(4-Aminosulfonyl-3-methoxy)phenyl-N4-[4-(1-cyano)ethoxy-3-methyl]phenyl-5-fluoro-2,4-pyrimidinediamine]
7 | 0.101 | 3.53 |  |  | Cc1cc(Nc2nc(Nc3ccc(C)c(S(N)(=O)=O)c3)ncc2F)ccc1OC(C)C#N (racemic) [Compound I-62, Racemic N2-(3-Aminosulfonyl-4-methyl)phenyl-N4-[4-(1-cyano)ethoxy-3-methyl]phenyl-5-fluoro-2,4-pyrimidinediamine]
8 | 0.118 | 5.64 |  |  | Cc1cc(Nc2nc(Nc3ccc(F)c(S(N)(=O)=O)c3)ncc2F)ccc1OC(C)C#N (racemic) [Compound I-69, Racemic N2-(3-Aminosulfonyl-4-fluoro)phenyl-N4-[4-(1-cyano)ethoxy-3-methyl]phenyl-5-fluoro-2,4-pyrimidinediamine]
9 | 0.0332 | 4.62 |  |  | Cc1ccc(Nc2ncc(F)c(Nc3ccc(OC(C)C#N)cc3)n2)cc1S(N)(=O)=O (racemic) [Compound I-67, Racemic N2-(3-Aminosulfonyl-4-methyl)phenyl-N4-[4-(1-cyano)ethoxy]phenyl-5-fluoro-2,4-pyrimidinediamine]
10 | 0.101 | 5.14 |  |  | CC(C)(C#N)Oc1ccc(Nc2nc(Nc3cccc(S(N)(=O)=O)c3)ncc2F)cc1 [Compound I-76, N2-(3-Aminosulfonyl)phenyl-N4-[4-(1-cyano-1-methyl)ethoxy]phenyl-5-fluoro-2,4-pyrimidinediamine]
11 |  | 12.9 | 0.478 |  | CCC(=O)NS(=O)(=O)c1cccc(Nc2ncc(F)c(Nc3ccc(OCc4nc(C)no4)cc3)n2)c1 [Compound I-273]
12 | 0.12 | 5.56 |  |  | Cc1ccc(Nc2ncc(F)c(Nc3ccc(OC(C)(C)C#N)cc3)n2)cc1S(N)(=O)=O [Compound I-73, N2-(3-Aminosulfonyl-4-methyl)phenyl-N4-[4-(1-cyano-1-methyl)ethoxy]phenyl-5-fluoro-2,4-pyrimidinediamine]
13 | 0.0524 | 3.31 |  |  | Cc1ccc(Nc2ncc(F)c(Nc3cc(C)c(OC(C)C#N)c(C)c3)n2)cc1S(N)(=O)=O (racemic) [Compound I-72, Racemic N2-(3-Aminosulfonyl-4-methyl)phenyl-N4-[4-(1-cyano)ethoxy-3,5-dimethyl]phenyl-5-fluoro-2,4-pyrimidinediamine]
14 | 0.187 | 4.96 |  |  | CC(C#N)Oc1ccc(Nc2nc(Nc3ccc(F)c(S(N)(=O)=O)c3)ncc2F)cc1 (racemic) [Compound I-68, Racemic N2-(3-Aminosulfonyl-4-fluoro)phenyl-N4-[4-(1-cyano)ethoxy]phenyl-5-fluoro-2,4-pyrimidinediamine]
15 | 0.17 | 10.1 |  |  | CNS(=O)(=O)c1cc(Nc2ncc(F)c(Nc3ccc(Cc4ccncc4)cc3)n2)ccc1C [III-75, 5-Fluoro-N2-[3-(N-methylaminosulfony)-4-methylphenyl]-5-fluoro-N4-[4-(4-pyridinylmethyl)phenyl]-2,4-pyrimidinediamine]
16 | 0.265 | 23.8 |  |  | Cc1cc(Nc2nc(Nc3cccc(S(N)(=O)=O)c3)ncc2F)cc(C)c1OCC(N)=O [Compound I-93, N4-(4-Aminocarbonylmethoxy-3,5-dimethyl)phenyl-N2-(3-aminosulfonyl)phenyl-5-fluoro-2,4-pyrimidinediamine]
17 | 0.18 | 48.3 |  |  | NS(=O)(=O)c1cccc(Nc2ncc(F)c(Nc3ccc(Cn4ccnc4)cc3)n2)c1 [III-81, N2-(3-Aminosulfonylphenyl)-5-fluoro-N4-[4-(1-imidazolylmethyl)phenyl]-2,4-pyrimidinediamine]
18 | 0.245 | 10.8 |  |  | CC(C)(C#N)Oc1ccc(Nc2nc(Nc3ccc(F)c(S(N)(=O)=O)c3)ncc2F)cc1 [Compound I-74, N2-(3-Aminosulfonyl-4-fluoro)phenyl-N4-[4-(1-cyano-1-methyl)ethoxy]phenyl-5-fluoro-2,4-pyrimidinediamine]
19 | 0.169 | 34.3 |  |  | Cc1cc(Nc2nc(Nc3ccc(S(N)(=O)=O)cc3)ncc2F)cc(C)c1OC(C)C#N (racemic) [Compound I-63, Racemic N2-(4-Aminosulfonyl)phenyl-N4-[4-(1-cyano)ethoxy-3,5-dimethyl]phenyl-5-fluoro-2,4-pyrimidinediamine]
20 | 0.103 | 7.89 |  |  | Cc1cc(Nc2nc(Nc3ccc(S(N)(=O)=O)cc3)ncc2F)ccc1OC(C)C#N (racemic) [Compound I-60, Racemic N2-(4-Aminosulfonyl)phenyl-N4-[4-(1-cyano)ethoxy-3-methyl]phenyl-5-fluoro-2,4-pyrimidinediamine]
21 | 0.0491 | 4.86 |  |  | N#CCOc1cccc(Nc2nc(Nc3cccc(S(N)(=O)=O)c3)ncc2F)c1 [Compound I-4, N2-(3-Aminosulfonyl)phenyl-N4-(3-cyanomethoxy)phenyl-5-fluoro-2,4-pyrimidinediamine]
22 |  |  |  | 2.69 | Cc1ccc(Nc2ncc(F)c(Nc3ccc4c(c3)CCN4S(C)(=O)=O)n2)cc1S(N)(=O)=O [VII-61, N2-(3-Aminosulfonyl-4-methylphenyl)-5-fluoro-N4-[4-(1-methylsulfonyl)indolin-5-yl]-2,4-pyrimidinediamine]
23 | 0.0618 | 3.27 |  |  | Cc1cc(Nc2nc(Nc3cccc(S(N)(=O)=O)c3)ncc2F)cc(C)c1OC(C)C#N (racemic) [Compound I-71, Racemic N2-(3-Aminosulfonyl)phenyl-N4-[4-(1-cyano)ethoxy-3,5-dimethyl]phenyl-5-fluoro-2,4-pyrimidinediamine]

Source: patent publication US11827628B2, “Compositions and methods for inhibition of the JAK pathway” (Rigel Pharmaceuticals, Inc., priority 2005, dated 2023)
